In US12180235B1, “Fabrication of novel nano-sized [4{3,4-bis-[(5-bromo-2-hydroxy-benzylidene)-amino]-phenyl }-phenyl-methanone] Ru(III) complex for pharmaceutical applications” (KING FAISAL UNIVERSITY, priority 2024, dated 2024):
≈ marks a conversion by molar mass, not a printed value. Like-named read-outs stand apart in the source and are kept apart here.

Experiments:
Format in all cases: cell-based
Colon cancer cells line = assay: Cytotoxic activity, Sulfo-Rhodamine-B-stain (SRB) assay; conditions: colon cancer cell line, 48 hrs
Method: The anticancer activity was made at the National Cancer Institute, Cancer Biology Department, Pharmacology Department, Cairo University. The absorbance or optical density (O.D.) of each well was measured spectrophotometrically at 564 (nm) with an “ELIZA” micro plate reader (Meter tech. Σ 960, “USA”). Evaluation of the cytotoxic activity of the prepared nano-complex was carried out against Colon cancer cells line. The evaluation process was carried out in vitro using the Sulfo-Rhodamine-B-stain (SRB). Cells were placed in 96-multiwell plate (10^4 cells/well) for 24 hrs before processing with the complexes to allow attachment of cell to the wall of the plate. Various concentrations of the compounds under test in DMSO (0, 1, 2.5, 5 and 10 µM) were added to the cell monolayer. Monolayer cells were incubated with the complexes for 48 hrs at 37° C. and in atmosphere of 5% CO2. After 48 hrs, cells were fixed, rinsed, and stained with Sulfo-Rhodamine-B-stain. Excess stain was washed with acetic acid and attached stain was treated with Tris EDTA buffer. Color intensity was measured in an ELISA reader. IC50 was evaluated and potency was calculated with regard to percentage of change of (vistabline standard). The relation between surviving fraction and compound concentration is plotted to get the survival curve of each tumor cell line after the specified compound. […]

Pseudomonas aeruginosa [1] = assay: Antibacterial screening, agar well diffusion method; conditions: 24 hours at 37° C.
Method: The susceptibilities of such growth rate of microorganisms were measured in vitro by agar well diffusion method. The tested nano complex was dissolved in dimethylsulfoxide at different concentrations (10 and 20 mg/ml). 1 cm^3 of a 24 h broth culture containing 10^6 CFU/cm^3 was placed in sterile Petri-dishes. Molten nutrient agar (15 cm^3) maintained at 45° C. was then poured into the Petri-dishes and allowed to solidify. Then holes of 6 mm diameter were formed in the agar using a sterile cork borer and these holes were completely filled with the test solutions. The plates were incubated for 24 hours at 37° C. After the incubation period, the zone of inhibition of each well was determined by measuring the zones of growth inhibition (mm) against the test microorganisms with zone reader (Hi Antibiotic zone scale). […] The measurements were made in triplicate for each compound and their average values are reported.

Pseudomonas aeruginosa [2] = assay: Minimum inhibitory concentration, serial broth dilution (bacteria)
Method: (§1) Minimum inhibitory concentrations (MICs) are defined as the lowest concentration of an antimicrobial that will inhibit the visible growth of a microorganism after overnight incubation. MICs are used by diagnostic laboratories mainly to confirm resistance of microorganism to antimicrobial agents and also to monitor the activity of new antimicrobial agents. MIC was determined in vitro in liquid medium by serial broth dilution method.

Aspergillus Flavus [3] = assay: Antifungal screening, well diffusion method; conditions: 35° C. for 7 days
Method: Antifungal activities of the prepared nano-complex were studied against three fungal cultures using well diffusion method. The tested fungi were inoculated in Sabouraud dextrose broth medium (Hi-Media Mumbai) and incubated at 35° C. for 72 h and subsequently a suspension of about 1.60×10^4-6.00×10^4 c.f.u/ml was introduced agar plates and a sterile glass spreader was used for even distribution of the inoculum. The discs measuring 6 mm in diameter were prepared from Whatman No. 1 filter paper and sterilized by dry heat at 140° C. for 1 h. The sterile discs previously soaked in known concentration of the tested compounds were placed in Sabouraud dextrose Agar (SDA) plates. The plates were inverted and incubated at 35° C. for 7 days. The susceptibility was assessed on the basis of diameter of inhibition against albicans and non-albicans strain of fungi.

Aspergillus Flavus [4] = assay: Minimum inhibitory concentration, serial broth dilution (fungus)
Method: as §1

Molecule	IC50 (Colon cancer cells line) [µM]	inhibition zone (Pseudomonas aeruginosa [1]) [mm]	MIC (Pseudomonas aeruginosa [2]) [µg/mL]	inhibition zone (Aspergillus Flavus [3]) [mm]	MIC (Aspergillus Flavus [4]) [µg/mL]	MIC (Pseudomonas aeruginosa [2]; read-out: MIC) [µg/mL]
CC[C@]1(O)C[C@@H]2CN(CCc3c([nH]c4ccccc34)[C@@](C(=O)OC)(c3cc4c(cc3OC)N(C)[C@H]3[C@@](O)(C(=O)OC)[C@H](OC(C)=O)[C@]5(CC)C=CCN6CC[C@]43[C@@H]65)C2)C1 [vinblastine]	5.7					
[4{3,4-bis-[(5-bromo-2-hydroxy-benzylidene)-amino]-phenyl}-phenyl-methanone] Ru(III) complex [prepared nano complex]		42	1.5	30	2.00	
CC1COc2c(N3CCN(C)CC3)c(F)cc3c(=O)c(C(=O)O)cn1c23 (stereo not drawn) [Ofloxacin]		38				2.25 (≈ 6.23 µM)
OC(Cn1cncn1)(Cn1cncn1)c1ccc(F)cc1F [Flucazanol]				27	2.50 (≈ 8.16 µM)	
